AC50 data for 26 compounds are collected here from patent US20230365592A1 (Agios Pharmaceuticals, Inc., priority 2022, published 2023).

Each structure is given as a SMILES string. Some results are limits rather than exact numbers.

This assay has as its target T1, human PAH with the R408W mutation (Homo sapiens, UniProt P00439, R408W).
T1 construct: expressed in transfected cells
T1 sequence (P00439 1-452 R408W): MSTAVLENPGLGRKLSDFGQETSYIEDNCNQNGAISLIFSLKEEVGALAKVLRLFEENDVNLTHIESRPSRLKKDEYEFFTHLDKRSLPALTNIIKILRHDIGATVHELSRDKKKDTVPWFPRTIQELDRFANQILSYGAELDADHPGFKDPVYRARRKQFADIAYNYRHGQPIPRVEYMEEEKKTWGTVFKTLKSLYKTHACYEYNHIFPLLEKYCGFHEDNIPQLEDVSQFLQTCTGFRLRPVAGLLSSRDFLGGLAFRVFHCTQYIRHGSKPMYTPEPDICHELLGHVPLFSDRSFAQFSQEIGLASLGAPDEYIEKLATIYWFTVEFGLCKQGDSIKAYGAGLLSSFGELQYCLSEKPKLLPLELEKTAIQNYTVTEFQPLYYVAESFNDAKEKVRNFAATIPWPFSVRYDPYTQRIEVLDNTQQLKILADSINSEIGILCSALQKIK
Briefly: Cell Based Phenylalanine Flux Assay.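 Further: after compound treatment, cells received sepiapterin plus isotope-labelled Phenylalanine for 4 hours, then labelled Tyrosine in the medium was quantified, 10-point 2-fold dilution series run in duplicate.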 As to conditions: A375 cells expressing human R408W PAH; 24 hrs compound incubation; 13C-Tyrosine by LC-MS; average where tested multiple times; read-out: AC50.
As to `Cc1cccn2nc([C@H]3c4nc[nH]c4CCN3c3ncc(C(F)(F)F)cn3)cc12` [Example 1755, (R)-4-(4-methylpyrazolo[1,5-a]pyridin-2-yl)-5-(5-(trifluoromethyl)pyrimidin-2-yl)-4,5,6,7-tetrahydro-1H-imidazo[4,5-c]pyridine], the AC50 was above 5000 nM.

As to `CC(C)(C)c1nnc(C(=O)N2CCc3[nH]cnc3[C@H]2c2cc3c(OC(F)(F)F)cccn3n2)o1` [Example 1759, (S)-(5-(tert-butyl)-1,3,4-oxadiazol-2-yl)(4-(4-(trifluoromethoxy)pyrazolo[1,5-a]pyridin-2-yl)-6,7-dihydro-1H-imidazo[4,5-c]pyridin-5(4H)-yl)methanone], the AC50 was 500 to 1000 nM.

As to `O=C(c1nnc(-c2ccccn2)o1)N1CCc2[nH]cnc2[C@H]1c1cc2c(OC(F)(F)F)cccn2n1` [Example 1760, (S)-(5-(pyridin-2-yl)-1,3,4-oxadiazol-2-yl)(4-(4-(trifluoromethoxy)pyrazolo[1,5-a]pyridin-2-yl)-6,7-dihydro-1H-imidazo[4,5-c]pyridin-5(4H)-yl)methanone], the AC50 is below 500 nM.

`FC(F)c1cccn2nc([C@@H]3c4nc[nH]c4CCN3c3ncccn3)cc12` [Example 1762, (S)-4-(4-(difluoromethyl)pyrazolo[1,5-a]pyridin-2-yl)-5-(pyrimidin-2-yl)-4,5,6,7-tetrahydro-1H-imidazo[4,5-c]pyridine]: the AC50 is below 500 nM.

With `FC(F)c1cccn2nc([C@H]3c4nc[nH]c4CCN3c3ncccn3)cc12` [Example 1763, (R)-4-(4-(difluoromethyl)pyrazolo[1,5-a]pyridin-2-yl)-5-(pyrimidin-2-yl)-4,5,6,7-tetrahydro-1H-imidazo[4,5-c]pyridine], the AC50 fell in the range of 1000 to 5000 nM.

Turning to `FC(F)(F)c1cccc2cc([C@H]3c4nc[nH]c4CCN3c3ncccn3)nn12` [Example 1764, (R)-5-(pyrimidin-2-yl)-4-(7-(trifluoromethyl)pyrazolo[1,5-a]pyridin-2-yl)-4,5,6,7-tetrahydro-1H-imidazo[4,5-c]pyridine], the AC50 was in the range of 1000 to 5000 nM.

With `FC(F)(F)c1cccc2cc([C@@H]3c4nc[nH]c4CCN3c3ncccn3)nn12` [Example 1765, (S)-5-(pyrimidin-2-yl)-4-(7-(trifluoromethyl)pyrazolo[1,5-a]pyridin-2-yl)-4,5,6,7-tetrahydro-1H-imidazo[4,5-c]pyridine], the AC50 is 500 to 1000 nM.

With `FC(F)c1cccn2nc([C@@H]3c4nc[nH]c4CCN3c3nnc(C(F)(F)F)o3)cc12` [Example 1767, (S)-2-(4-(4-(difluoromethyl)pyrazolo[1,5-a]pyridin-2-yl)-6,7-dihydro-1H-imidazo[4,5-c]pyridin-5(4H)-yl)-5-(trifluoromethyl)-1,3,4-oxadiazole], the concentration at half-maximal activity (AC50) is below 500 nM.

`O=C(c1cnn2cc(C3CC3)ccc12)N1CCc2[nH]cnc2[C@H]1c1cc2c(Cl)cccn2n1` [Example 1768, (S)-(4-(4-chloropyrazolo[1,5-a]pyridin-2-yl)-6,7-dihydro-1H-imidazo[4,5-c]pyridin-5(4H)-yl)(6-cyclopropylpyrazolo[1,5-a]pyridin-3-yl)methanone]: the AC50 is below 500 nM.

As to `O=C(c1cnn2cc(C3CC3)ccc12)N1CCc2[nH]cnc2[C@@H]1c1cc2c(Cl)cccn2n1` [Example 1769, (R)-(4-(4-chloropyrazolo[1,5-a]pyridin-2-yl)-6,7-dihydro-1H-imidazo[4,5-c]pyridin-5(4H)-yl)(6-cyclopropylpyrazolo[1,5-a]pyridin-3-yl)methanone], the AC50 lay within 1000 to 5000 nM.

Consider `CN(C)c1ccc2c(C(=O)N3CCc4[nH]cnc4[C@H]3c3cc4c(C(F)F)cccn4n3)cnn2c1` [Example 1770, (S)-(4-(4-(difluoromethyl)pyrazolo[1,5-a]pyridin-2-yl)-6,7-dihydro-1H-imidazo[4,5-c]pyridin-5(4H)-yl)(6-(dimethylamino)pyrazolo[1,5-a]pyridin-3-yl)methanone], for which the AC50 lay within 500 to 1000 nM.

As to `CN(C)c1ccc2c(C(=O)N3CCc4[nH]cnc4[C@@H]3c3cc4c(C(F)F)cccn4n3)cnn2c1` [Example 1771, (R)-(4-(4-(difluoromethyl)pyrazolo[1,5-a]pyridin-2-yl)-6,7-dihydro-1H-imidazo[4,5-c]pyridin-5(4H)-yl)(6-(dimethylamino)pyrazolo[1,5-a]pyridin-3-yl)methanone], the AC50 is above 5000 nM.

Take `CN(C)c1ccc2c(C(=O)N3CCc4[nH]cnc4[C@@H]3c3cc4c(F)cccn4n3)cnn2c1` [Example 1773, (R)-(6-(dimethylamino)pyrazolo[1,5-a]pyridin-3-yl)(4-(4-fluoropyrazolo[1,5-a]pyridin-2-yl)-6,7-dihydro-1H-imidazo[4,5-c]pyridin-5(4H)-yl)methanone]: the AC50 was above 5000 nM.

In the case of `FC(F)(F)c1cnc(N2CCc3[nH]cnc3[C@H]2c2cc3c(C(F)(F)F)cccn3n2)nc1` [Example 1774, (S)-4-(4-(trifluoromethyl)pyrazolo[1,5-a]pyridin-2-yl)-5-(5-(trifluoromethyl)pyrimidin-2-yl)-4,5,6,7-tetrahydro-1H-imidazo[4,5-c]pyridine], the AC50 was below 500 nM.

On to `FC(F)(F)c1cnc(N2CCc3[nH]cnc3[C@@H]2c2cc3c(C(F)(F)F)cccn3n2)nc1` [Example 1775, (R)-4-(4-(trifluoromethyl)pyrazolo[1,5-a]pyridin-2-yl)-5-(5-(trifluoromethyl)pyrimidin-2-yl)-4,5,6,7-tetrahydro-1H-imidazo[4,5-c]pyridine], for which the AC50 is above 5000 nM.

On to `FC(F)c1cccn2nc([C@@H]3c4nc[nH]c4CCN3c3ncc(C(F)(F)F)cn3)cc12` [Example 1776, (S)-4-(4-(difluoromethyl)pyrazolo[1,5-a]pyridin-2-yl)-5-(5-(trifluoromethyl)pyrimidin-2-yl)-4,5,6,7-tetrahydro-1H-imidazo[4,5-c]pyridine], for which the AC50 is below 500 nM.

`FC(F)c1cccn2nc([C@H]3c4nc[nH]c4CCN3c3ncc(C(F)(F)F)cn3)cc12` [Example 1777, (R)-4-(4-(difluoromethyl)pyrazolo[1,5-a]pyridin-2-yl)-5-(5-(trifluoromethyl)pyrimidin-2-yl)-4,5,6,7-tetrahydro-1H-imidazo[4,5-c]pyridine]: the AC50 was above 5000 nM.

For the compound `FC(F)(F)c1cnc(N2CCc3[nH]cnc3[C@H]2c2cc3c(Cl)cccn3n2)nc1` [Example 1780, (S)-4-(4-chloropyrazolo[1,5-a]pyridin-2-yl)-5-(5-(trifluoromethyl)pyrimidin-2-yl)-4,5,6,7-tetrahydro-1H-imidazo[4,5-c]pyridine], the AC50 is below 500 nM.

Regarding `FC(F)(F)c1cnc(N2CCc3[nH]cnc3[C@@H]2c2cc3c(Cl)cccn3n2)nc1` [Example 1781, (R)-4-(4-chloropyrazolo[1,5-a]pyridin-2-yl)-5-(5-(trifluoromethyl)pyrimidin-2-yl)-4,5,6,7-tetrahydro-1H-imidazo[4,5-c]pyridine], the AC50 is above 5000 nM.

On to `O=C(c1nnc(-c2cnn(C(F)F)c2)o1)N1CCc2[nH]cnc2[C@H]1c1cc2c(OC(F)(F)F)cccn2n1` [Example 1782, (S)-(5-(1-(difluoromethyl)-1H-pyrazol-4-yl)-1,3,4-oxadiazol-2-yl)(4-(4-(trifluoromethoxy)pyrazolo[1,5-a]pyridin-2-yl)-6,7-dihydro-1H-imidazo[4,5-c]pyridin-5(4H)-yl)methanone], for which the AC50 lay in the range of 500 to 1000 nM.

In the case of `COCCc1ccc2c(C(=O)N3CCc4[nH]cnc4[C@H]3c3cc4c(C(F)(F)F)cccn4n3)cnn2c1` [Example 1784, (S)-(6-(2-methoxyethyl)pyrazolo[1,5-a]pyridin-3-yl)(4-(4-(trifluoromethyl)pyrazolo[1,5-a]pyridin-2-yl)-1,4,6,7-tetrahydro-5H-imidazo[4,5-c]pyridin-5-yl)methanone], the AC50 was in the range of 500 to 1000 nM.

As for `Cc1ccc2c(C(=O)N3CCc4[nH]cnc4[C@H]3c3cc4cccc(F)n4n3)cnn2c1` [Example 1786, (S)-(4-(7-fluoropyrazolo[1,5-a]pyridin-2-yl)-6,7-dihydro-1H-imidazo[4,5-c]pyridin-5(4H)-yl)(6-methylpyrazolo[1,5-a]pyridin-3-yl)methanone], the concentration at half-maximal activity (AC50) fell in the range of 500 to 1000 nM.

In the case of `Cc1ccc2c(C(=O)N3CCc4[nH]cnc4[C@@H]3c3cc4cccc(F)n4n3)cnn2c1` [Example 1787, (R)-(4-(7-fluoropyrazolo[1,5-a]pyridin-2-yl)-6,7-dihydro-1H-imidazo[4,5-c]pyridin-5(4H)-yl)(6-methylpyrazolo[1,5-a]pyridin-3-yl)methanone], the AC50 was in the range of 1000 to 5000 nM.

In the case of `COc1cccn2nc([C@@H]3c4nc[nH]c4CCN3C(=O)c3cnn4cc(C5CC5)ccc34)cc12` [Example 1788, (S)-(6-cyclopropylpyrazolo[1,5-a]pyridin-3-yl)(4-(4-methoxypyrazolo[1,5-a]pyridin-2-yl)-6,7-dihydro-1H-imidazo[4,5-c]pyridin-5(4H)-yl)methanone], the AC50 was in the range of 500 to 1000 nM.

Turning to `COc1cccn2nc([C@H]3c4nc[nH]c4CCN3C(=O)c3cnn4cc(C5CC5)ccc34)cc12` [Example 1789, (R)-(6-cyclopropylpyrazolo[1,5-a]pyridin-3-yl)(4-(4-methoxypyrazolo[1,5-a]pyridin-2-yl)-6,7-dihydro-1H-imidazo[4,5-c]pyridin-5(4H)-yl)methanone], the AC50 was above 5000 nM.

As for `O=C(c1cnn2cc(C3CC3)ccc12)N1CCc2[nH]cnc2[C@H]1c1cc2cccc(F)n2n1` [Example 1790, (S)-(6-cyclopropylpyrazolo[1,5-a]pyridin-3-yl)(4-(7-fluoropyrazolo[1,5-a]pyridin-2-yl)-6,7-dihydro-1H-imidazo[4,5-c]pyridin-5(4H)-yl)methanone], the AC50 lay within 500 to 1000 nM.
